Measurements as given in patent US20200360477A1, “INHALABLE FORMULATIONS FOR KINASE INHIBITION” (Aerovate Therapeutics, Inc., priority 2019, published 2020).
pKd: −log10 of the molar value. Where two headings read alike, the source gives them in different places. Blank lines part the entries; values can stand above or below the compound they belong to.

Tests used:
PIK4CB = molecular target: T1, PIK4CB (Homo sapiens, UniProt Q9UBF8); assay: KINOMEscan competition binding assay
T1 construct: purchased Eurofins DiscoverX Corporation (KINOMEscan); host or cells: E. coli BL21-derived host (T7 phage) or HEK-293
T1 sequence (Q9UBF8 whole entry): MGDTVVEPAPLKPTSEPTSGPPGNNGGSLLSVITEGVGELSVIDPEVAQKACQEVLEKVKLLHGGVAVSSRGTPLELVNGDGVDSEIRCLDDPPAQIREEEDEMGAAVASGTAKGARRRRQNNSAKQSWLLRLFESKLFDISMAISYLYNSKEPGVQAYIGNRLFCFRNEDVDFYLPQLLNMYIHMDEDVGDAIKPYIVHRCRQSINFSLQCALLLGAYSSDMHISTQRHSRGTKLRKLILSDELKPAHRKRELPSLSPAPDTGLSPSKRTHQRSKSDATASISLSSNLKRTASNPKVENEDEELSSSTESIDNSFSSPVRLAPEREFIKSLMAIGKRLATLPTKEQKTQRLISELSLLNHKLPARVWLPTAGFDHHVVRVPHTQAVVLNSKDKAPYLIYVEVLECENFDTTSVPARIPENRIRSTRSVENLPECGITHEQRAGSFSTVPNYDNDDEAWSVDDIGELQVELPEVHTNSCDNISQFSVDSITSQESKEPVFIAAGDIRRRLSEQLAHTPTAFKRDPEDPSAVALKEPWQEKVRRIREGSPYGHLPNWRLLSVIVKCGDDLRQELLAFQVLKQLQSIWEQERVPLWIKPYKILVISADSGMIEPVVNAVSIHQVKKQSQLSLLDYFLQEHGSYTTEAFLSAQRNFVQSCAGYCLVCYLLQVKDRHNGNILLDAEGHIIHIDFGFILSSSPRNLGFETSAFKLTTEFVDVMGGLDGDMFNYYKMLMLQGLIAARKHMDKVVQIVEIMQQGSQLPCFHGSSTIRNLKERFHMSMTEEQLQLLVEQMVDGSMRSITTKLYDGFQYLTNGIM
Method: (§1) The ligand-bound beads were blocked with excess biotin and washed with blocking buffer (SeaBlock (Pierce), 1% BSA, 0.05% Tween 20, 1 mM DTT) to remove unbound ligand and to reduce nonspecific binding. […] Kds were determined using an 11-point 3-fold compound dilution series with three DMSO control points.
(§2) Each was a final volume of 0.02 ml.

PDGFR-α = molecular target: T2, PDGFR-α (Homo sapiens, UniProt P16234); assay: KINOMEscan competition binding assay
T2 construct: purchased Eurofins DiscoverX Corporation (KINOMEscan); host or cells: E. coli BL21-derived host (T7 phage) or HEK-293
T2 sequence (P16234 24-1089): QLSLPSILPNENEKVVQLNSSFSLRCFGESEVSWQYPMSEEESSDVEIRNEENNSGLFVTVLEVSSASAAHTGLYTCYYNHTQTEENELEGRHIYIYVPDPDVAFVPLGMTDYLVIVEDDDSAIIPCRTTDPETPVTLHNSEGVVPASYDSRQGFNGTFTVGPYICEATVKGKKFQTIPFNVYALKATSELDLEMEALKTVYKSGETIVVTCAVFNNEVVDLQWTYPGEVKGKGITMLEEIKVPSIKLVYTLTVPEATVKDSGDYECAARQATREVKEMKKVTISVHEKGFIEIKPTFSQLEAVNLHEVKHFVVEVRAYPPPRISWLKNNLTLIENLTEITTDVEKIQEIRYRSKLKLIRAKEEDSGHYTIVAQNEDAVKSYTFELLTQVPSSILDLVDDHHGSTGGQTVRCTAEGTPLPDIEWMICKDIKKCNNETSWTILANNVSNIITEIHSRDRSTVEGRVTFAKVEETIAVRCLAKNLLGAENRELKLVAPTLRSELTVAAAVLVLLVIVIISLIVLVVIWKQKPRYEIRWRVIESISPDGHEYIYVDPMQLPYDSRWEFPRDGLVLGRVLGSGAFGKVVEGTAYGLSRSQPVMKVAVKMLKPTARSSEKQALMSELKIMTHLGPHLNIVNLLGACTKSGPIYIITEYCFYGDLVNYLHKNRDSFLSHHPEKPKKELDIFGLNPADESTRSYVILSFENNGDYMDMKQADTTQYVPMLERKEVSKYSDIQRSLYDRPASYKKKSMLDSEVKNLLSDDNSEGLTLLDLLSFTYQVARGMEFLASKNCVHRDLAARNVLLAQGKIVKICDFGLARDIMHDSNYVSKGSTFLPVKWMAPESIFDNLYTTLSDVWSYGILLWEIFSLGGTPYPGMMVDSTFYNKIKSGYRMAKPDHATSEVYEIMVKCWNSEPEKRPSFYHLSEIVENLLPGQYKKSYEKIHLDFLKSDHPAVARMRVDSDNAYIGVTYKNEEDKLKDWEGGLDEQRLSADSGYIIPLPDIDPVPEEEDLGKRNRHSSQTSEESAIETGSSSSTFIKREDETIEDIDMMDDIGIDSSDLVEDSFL
Method: as §1, §2

DDR2 = molecular target: T3, DDR2 (Homo sapiens, UniProt Q16832); assay: KINOMEscan competition binding assay
T3 construct: purchased Eurofins DiscoverX Corporation (KINOMEscan); host or cells: E. coli BL21-derived host (T7 phage) or HEK-293
T3 sequence (Q16832 22-855): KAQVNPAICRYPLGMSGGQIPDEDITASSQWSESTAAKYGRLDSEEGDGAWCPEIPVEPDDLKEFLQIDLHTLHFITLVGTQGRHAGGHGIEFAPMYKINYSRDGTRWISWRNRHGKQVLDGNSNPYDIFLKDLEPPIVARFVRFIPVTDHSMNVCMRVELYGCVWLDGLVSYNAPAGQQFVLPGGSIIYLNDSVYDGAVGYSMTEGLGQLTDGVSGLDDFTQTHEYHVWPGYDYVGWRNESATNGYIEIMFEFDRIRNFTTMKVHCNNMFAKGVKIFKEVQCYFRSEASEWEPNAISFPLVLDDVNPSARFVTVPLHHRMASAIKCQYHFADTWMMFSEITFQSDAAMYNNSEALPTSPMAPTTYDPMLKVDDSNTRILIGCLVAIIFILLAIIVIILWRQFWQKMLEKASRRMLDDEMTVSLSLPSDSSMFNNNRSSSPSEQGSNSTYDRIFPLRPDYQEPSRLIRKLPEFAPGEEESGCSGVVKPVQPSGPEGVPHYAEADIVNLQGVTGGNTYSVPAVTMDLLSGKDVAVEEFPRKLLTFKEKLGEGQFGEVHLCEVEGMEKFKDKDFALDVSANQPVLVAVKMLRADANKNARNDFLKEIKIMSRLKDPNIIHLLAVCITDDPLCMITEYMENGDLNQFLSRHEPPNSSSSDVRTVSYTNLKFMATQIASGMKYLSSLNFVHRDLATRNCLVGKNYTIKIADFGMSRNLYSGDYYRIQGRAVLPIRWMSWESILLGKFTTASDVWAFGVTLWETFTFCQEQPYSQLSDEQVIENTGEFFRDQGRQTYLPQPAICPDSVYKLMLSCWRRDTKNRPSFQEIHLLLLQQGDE
Method: as §1, §2

LYN = molecular target: T4, LYN (Homo sapiens, UniProt P07948); assay: KINOMEscan competition binding assay
T4 construct: purchased Eurofins DiscoverX Corporation (KINOMEscan); host or cells: E. coli BL21-derived host (T7 phage) or HEK-293
T4 sequence (P07948 whole entry): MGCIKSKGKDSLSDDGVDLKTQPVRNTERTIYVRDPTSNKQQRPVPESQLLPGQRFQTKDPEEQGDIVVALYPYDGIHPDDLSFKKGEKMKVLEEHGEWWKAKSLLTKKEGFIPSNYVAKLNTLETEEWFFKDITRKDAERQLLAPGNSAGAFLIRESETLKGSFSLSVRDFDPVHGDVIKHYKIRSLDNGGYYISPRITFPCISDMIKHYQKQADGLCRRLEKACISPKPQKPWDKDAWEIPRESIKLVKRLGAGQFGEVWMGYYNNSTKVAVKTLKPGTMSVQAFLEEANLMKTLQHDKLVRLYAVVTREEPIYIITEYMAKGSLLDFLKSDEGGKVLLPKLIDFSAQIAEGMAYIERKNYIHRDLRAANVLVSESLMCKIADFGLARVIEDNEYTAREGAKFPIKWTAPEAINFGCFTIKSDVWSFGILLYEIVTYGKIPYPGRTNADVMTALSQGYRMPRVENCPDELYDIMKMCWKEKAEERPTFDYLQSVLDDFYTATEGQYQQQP
Method: as §1, §2

PDGFR-β = molecular target: T5, PDGFR-β (Homo sapiens, UniProt P09619); assay: KINOMEscan competition binding assay
T5 construct: purchased Eurofins DiscoverX Corporation (KINOMEscan); host or cells: E. coli BL21-derived host (T7 phage) or HEK-293
T5 sequence (P09619 33-1106): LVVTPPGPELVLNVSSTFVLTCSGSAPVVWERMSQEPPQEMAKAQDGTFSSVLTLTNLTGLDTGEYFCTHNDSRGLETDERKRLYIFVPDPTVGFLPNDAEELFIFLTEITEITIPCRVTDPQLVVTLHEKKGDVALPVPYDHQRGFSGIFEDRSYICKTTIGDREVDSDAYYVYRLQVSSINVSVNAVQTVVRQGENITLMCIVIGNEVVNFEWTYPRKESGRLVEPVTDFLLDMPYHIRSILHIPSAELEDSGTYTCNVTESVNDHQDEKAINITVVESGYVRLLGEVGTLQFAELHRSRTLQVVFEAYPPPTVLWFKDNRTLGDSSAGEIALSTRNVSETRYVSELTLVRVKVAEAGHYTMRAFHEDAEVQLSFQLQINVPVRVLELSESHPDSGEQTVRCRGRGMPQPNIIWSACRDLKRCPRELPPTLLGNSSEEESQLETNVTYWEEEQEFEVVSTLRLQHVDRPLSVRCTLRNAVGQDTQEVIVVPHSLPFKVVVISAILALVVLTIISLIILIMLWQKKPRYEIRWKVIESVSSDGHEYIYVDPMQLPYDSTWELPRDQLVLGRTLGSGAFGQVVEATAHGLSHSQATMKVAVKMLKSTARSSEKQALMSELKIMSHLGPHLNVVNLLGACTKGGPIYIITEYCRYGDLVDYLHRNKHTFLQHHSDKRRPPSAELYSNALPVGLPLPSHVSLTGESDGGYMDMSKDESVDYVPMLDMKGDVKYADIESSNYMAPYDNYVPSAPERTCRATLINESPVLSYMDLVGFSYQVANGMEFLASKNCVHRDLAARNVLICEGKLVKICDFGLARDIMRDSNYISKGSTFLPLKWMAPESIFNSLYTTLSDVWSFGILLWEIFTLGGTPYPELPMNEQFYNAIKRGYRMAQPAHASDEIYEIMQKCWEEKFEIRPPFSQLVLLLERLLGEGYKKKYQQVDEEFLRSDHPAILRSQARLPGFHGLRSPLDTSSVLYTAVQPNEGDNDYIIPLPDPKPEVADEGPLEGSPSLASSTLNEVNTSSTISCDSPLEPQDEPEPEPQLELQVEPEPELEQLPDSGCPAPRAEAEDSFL
Method: as §1, §2

FGR = molecular target: T6, FGR (Homo sapiens, UniProt P09769); assay: KINOMEscan competition binding assay
T6 construct: purchased Eurofins DiscoverX Corporation (KINOMEscan); host or cells: E. coli BL21-derived host (T7 phage) or HEK-293
Method: as §1, §2

VEGFR2 = molecular target: T7, VEGFR2 (Homo sapiens, UniProt P35968); assay: KINOMEscan competition binding assay
T7 construct: purchased Eurofins DiscoverX Corporation (KINOMEscan); host or cells: E. coli BL21-derived host (T7 phage) or HEK-293
Method: as §1, §2

RET = molecular target: T8, RET (Homo sapiens, UniProt P07949); assay: KINOMEscan competition binding assay
T8 construct: purchased Eurofins DiscoverX Corporation (KINOMEscan); host or cells: E. coli BL21-derived host (T7 phage) or HEK-293
Method: as §1, §2

KIT = KIT (Homo sapiens, UniProt P10721); assay: KINOMEscan competition binding assay
[1] = molecular target: T9, phosphatidylinositol 5-phosphate 4-kinase type-2 gamma (PI42C) (Homo sapiens, UniProt Q8TBX8); assay: KINOMEscan competition binding assay
T9 construct: purchased Eurofins DiscoverX Corporation (KINOMEscan); host or cells: E. coli BL21-derived host (T7 phage) or HEK-293
T9 sequence (Q8TBX8 1-421): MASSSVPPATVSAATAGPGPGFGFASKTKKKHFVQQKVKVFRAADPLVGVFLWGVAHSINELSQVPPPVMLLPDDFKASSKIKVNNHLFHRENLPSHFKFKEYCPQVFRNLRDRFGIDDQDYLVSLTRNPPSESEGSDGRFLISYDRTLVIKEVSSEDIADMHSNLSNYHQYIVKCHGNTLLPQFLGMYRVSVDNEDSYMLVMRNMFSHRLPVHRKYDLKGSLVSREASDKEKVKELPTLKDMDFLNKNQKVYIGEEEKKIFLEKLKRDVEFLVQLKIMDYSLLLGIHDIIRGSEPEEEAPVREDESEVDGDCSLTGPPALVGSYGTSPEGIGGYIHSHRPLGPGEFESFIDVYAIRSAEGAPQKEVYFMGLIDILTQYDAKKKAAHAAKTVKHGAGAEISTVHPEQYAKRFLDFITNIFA
Method: The ligand-bound beads were blocked with excess biotin and washed with blocking buffer (SeaBlock (Pierce), 1% BSA, 0.05% Tween 20, 1 mM DTT) to remove unbound ligand and to reduce nonspecific binding. […] Test compounds were prepared as 111× stocks in 100% DMSO. Kds were determined using an 11-point 3-fold compound dilution series with three DMSO control points.
as §2

FLT4 = FLT4 (Homo sapiens, UniProt P35916); assay: KINOMEscan competition binding assay
FLT4, sequence (P35916 25-1363): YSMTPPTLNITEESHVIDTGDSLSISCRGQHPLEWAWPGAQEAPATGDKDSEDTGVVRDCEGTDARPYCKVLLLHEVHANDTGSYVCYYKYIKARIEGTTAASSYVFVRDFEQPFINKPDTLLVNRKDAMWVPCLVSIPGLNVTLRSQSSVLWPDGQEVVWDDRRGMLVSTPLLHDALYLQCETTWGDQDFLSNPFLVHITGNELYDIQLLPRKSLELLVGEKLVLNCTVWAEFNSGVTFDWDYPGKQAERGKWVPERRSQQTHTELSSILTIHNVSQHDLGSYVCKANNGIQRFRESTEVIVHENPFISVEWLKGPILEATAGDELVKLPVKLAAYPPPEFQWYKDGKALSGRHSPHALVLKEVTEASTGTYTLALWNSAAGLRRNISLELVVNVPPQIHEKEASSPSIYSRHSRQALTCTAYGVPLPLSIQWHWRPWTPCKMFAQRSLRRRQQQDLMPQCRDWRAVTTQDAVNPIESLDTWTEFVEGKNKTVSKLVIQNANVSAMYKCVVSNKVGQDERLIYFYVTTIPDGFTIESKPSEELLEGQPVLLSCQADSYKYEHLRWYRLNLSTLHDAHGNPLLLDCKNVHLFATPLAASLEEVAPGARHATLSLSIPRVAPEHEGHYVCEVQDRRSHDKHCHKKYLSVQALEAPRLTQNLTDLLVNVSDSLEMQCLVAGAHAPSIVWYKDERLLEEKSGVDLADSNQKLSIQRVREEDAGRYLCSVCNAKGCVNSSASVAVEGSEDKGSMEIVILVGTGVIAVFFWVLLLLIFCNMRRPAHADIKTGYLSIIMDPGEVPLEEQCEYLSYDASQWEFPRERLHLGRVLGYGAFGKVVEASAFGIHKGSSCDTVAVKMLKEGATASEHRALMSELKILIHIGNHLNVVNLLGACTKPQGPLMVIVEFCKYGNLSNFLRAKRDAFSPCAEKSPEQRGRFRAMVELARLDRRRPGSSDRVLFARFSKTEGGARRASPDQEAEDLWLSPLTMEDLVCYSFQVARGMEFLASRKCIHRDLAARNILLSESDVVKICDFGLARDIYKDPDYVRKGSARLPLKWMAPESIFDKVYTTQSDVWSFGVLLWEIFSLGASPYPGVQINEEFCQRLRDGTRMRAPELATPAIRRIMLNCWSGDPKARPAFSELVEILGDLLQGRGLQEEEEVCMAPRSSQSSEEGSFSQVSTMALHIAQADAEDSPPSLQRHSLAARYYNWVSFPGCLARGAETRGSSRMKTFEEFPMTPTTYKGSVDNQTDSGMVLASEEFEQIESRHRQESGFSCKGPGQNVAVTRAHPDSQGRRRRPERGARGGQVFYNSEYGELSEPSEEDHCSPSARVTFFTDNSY

ABL-1-nonphosphorolated [2] = molecular target: T10, ABL-1-nonphosphorolated (Homo sapiens, UniProt P00519); assay: biochemical; details: read-out: Compound Activity Remaining at 1 μM (%)
CSF1R = CSF1R (Homo sapiens, UniProt P07333); assay: biochemical
ABL-1-nonphosphorolated [3] = molecular target: T10, ABL-1-nonphosphorolated; details: ABL1
FYN = FYN (Homo sapiens, UniProt P06241); assay: KINOMEscan competition binding assay
LCK = LCK (Homo sapiens, UniProt P06239); assay: KINOMEscan competition binding assay
DDR1 = DDR1 (Homo sapiens, UniProt Q08345); assay: KINOMEscan competition binding assay
SRC = SRC (Homo sapiens, UniProt P12931); assay: KINOMEscan competition binding assay
HCK = HCK (Homo sapiens, UniProt P08631); assay: KINOMEscan competition binding assay
FRK = FRK (Homo sapiens, UniProt P42685); assay: KINOMEscan competition binding assay
[4] = read-out: Compound Activity Remaining at 1 μM (%)

Compound: imatinib [Compound A, reference compound]
Compound Activity Remaining at 1 μM (%) (PIK4CB; 1 μM compound): 59%
Compound Activity Remaining at 1 μM (%) (PDGFR-α; 1 μM compound): 0.95%
Compound Activity Remaining at 1 μM (%) (DDR2; 1 μM compound): 0.8%
Compound Activity Remaining at 1 μM (%) (LYN; 1 μM compound): 30%
Compound Activity Remaining at 1 μM (%) (PDGFR-β; 1 μM compound): 0.15%
Compound Activity Remaining at 1 μM (%) (FGR; 1 μM compound): 70%
Compound Activity Remaining at 1 μM (%) (VEGFR2; 1 μM compound): 70%
pKd (RET): < 5.00
Compound Activity Remaining at 1 μM (%) (RET; 1 μM compound): 98%
Compound Activity Remaining at 1 μM (%) (KIT; KIT, 1 μM compound): 0.5%
kinase found to be inhibited [1]: inhibited
pKd (FLT4; FLT4): < 5.00
Compound Activity Remaining at 1 μM (%) (FLT4; FLT4, 1 μM compound): 87%

pKd (PIK4CB): 6.82
remaining binding at 1 µM (PIK4CB; 1 μM compound): 3.8%
pKd (PDGFR-α): 8.40
remaining binding at 1 µM (PDGFR-α; 1 μM compound): 0.35%
pKd (DDR2): 7.72
remaining binding at 1 µM (DDR2; 1 μM compound): 1.8%
pKd (LYN): 7.62
remaining binding at 1 µM (LYN; 1 μM compound): 7.3%
pKd (PDGFR-β): 9.09
remaining binding at 1 µM (PDGFR-β; 1 μM compound): 0%
pKd (FGR): 7.04
remaining binding at 1 µM (FGR; 1 μM compound): 21%
pKd (VEGFR2): 7.82
remaining binding at 1 µM (VEGFR2; 1 μM compound): 0.25%
pKd (RET): 7.72
remaining binding at 1 µM (RET; 1 μM compound): 3.9%
pKd (KIT): 8.33
remaining binding at 1 µM (KIT; [4]): 0%
remaining activity at 1 µM (ABL-1-nonphosphorolated [2]): 3.3%
pKd (CSF1R): 8.21
remaining activity at 1 µM (CSF1R; [4]): 0.7%
kinase found to be inhibited (ABL-1-nonphosphorolated [3]): inhibited
pKd (FYN): 7.26
remaining binding at 1 µM (FYN; [4]): 9.7%
pKd (LCK): 7.66
remaining binding at 1 µM (LCK; [4]): 1.1%
pKd (DDR1): 8.46
remaining binding at 1 µM (DDR1; [4]): 0.2%
pKd (SRC): 6.89
remaining binding at 1 µM (SRC; [4]): 6.4%
pKd (HCK): 7.44
remaining binding at 1 µM (HCK; [4]): 3.3%
pKd (FRK): 7.96
remaining binding at 1 µM (FRK; [4]): 5.3%
pKd (FLT4): 7.74
remaining binding at 1 µM (FLT4; [4]): 12%
Compound: COc1ccc(-c2cncc(N[C@@H](C)c3cccc(NC(=O)c4cncc(C)c4)c3)n2)cc1OC [Compound B]
